Data on four compounds can be found in article PMC4313372, “MHJ_0461 is a multifunctional leucine aminopeptidase on the surface of Mycoplasma hyopneumoniae” (Open Biology, 2015).

The target of assay [1] is T1, rMHJ_0461 (Mesomycoplasma hyopneumoniae, UniProt Q4A9M4). The experiment in a line: fluorogenic aminopeptidase assay, leucine-AMC, […] min preincubation. Particulars: read-out: % inhibition at 1 mM. It is filed as biochemical. Set-up: gene pepA; multimers of about 500 and 800 kDa.
For assay [2], the target named is recombinant MHJ_0461 (Mycoplasma hyopneumoniae strain J). Nature of the assay: native gel or EMSA; Blue Native PAGE of purified rMHJ_0461; complexes identified by LC-MS/MS of tryptic peptides.
Assay [3] addresses T1, rMHJ_0461. Set-up: gene pepA. Particulars: 50 uM substrate, 5 mM Mn2+, pH 7.2, 37 C.

What is called inhibition is the drop in the measured response relative to a control, in per cent. As usually defined, the stoichiometry N is the number of molecules, sites or subunits per partner or assembly.

Regarding `CC(C)C[C@H](NC(=O)[C@@H](O)[C@H](N)Cc1ccccc1)C(=O)O` [bestatin], the inhibition at 1000 µM at rMHJ_0461 [1] is 99%.

recombinant MHJ_0461 (enzyme): the stoichiometry N in assay [2] was above 10 subunits.

Consider `CC(C)C[C@@H](N)[C@H](O)C(=O)N[C@H](C(=O)N[C@H](C(=O)N[C@@H](CC(=O)O)C(=O)O)C(C)C)C(C)C` [amastatin], for which, on rMHJ_0461 [1], the inhibition at 1000 µM is 69%.

In the case of `CSCC[C@H](N)C(=O)Nc1ccc2c(C)cc(=O)oc2c1` [methionine-AMC], the “fluorogenic AMC release assay” value on rMHJ_0461 [3] is “leucine > methionine > phenylalanine > arginine > alanine > isoleucine > glycine > valine”.
